According to patent publication US20130123367A1, “VINYLOGOUS CHALCONE DERIVATIVES AND THEIR MEDICAL USE” (MEDIZINISCHE UNIVERSITAT WIEN, priority 2010, published 2013):

Experiments:
Format in all cases: cell-based
HCT116 cell line = experiment: Cell proliferation assay using crystal violet, HCT116; conditions: Homo sapiens, HCT-116, n = 3, 24 h incubation
Protocol: (§1) For quantification, cells are treated with crystal violet, a dye that stains proteins. After washing away of excess dye, the remaining crystal violet is dissolved in a sodium citrate solution. The solution is analyzed photometrically at 590 nm. The optical density of this solution depends on the concentration of crystal violet and therefore on the amount of cells. […] To reduce effects of evaporation, only the inner 60 wells of 96-well plates (coated with 0.1% gelatine solution for studies with HUVEC) were used for experiments.
Cells were seeded at a density of 5 000 cells per well in 100 μl growth medium (HUVEC) or 20 000 (HCT116), 15 000 (SW480 and 518A2) or 10 000 (HT29) cells per well in 200 μl growth medium in 55 wells per plate. 5 wells were filled with medium only. Additionally, a 96-well plate with cells in 12 wells and medium in 6 wells was prepared as T0-plate. The next day, additional 98 μl of growth medium were added in every well (only HUVEC).
Cells were treated with 2 μl of the working solution 24 h after seeding. Final compound concentrations in the well were 10 μM for the first round of screening. The final DMSO concentration was 0.5%. […] After finishing the addition of compounds, the T0-plate was stained with crystal violet for giving the cell density at time point zero. Before staining, the growth medium was poured away. Wells were filled with 50 μl crystal violet solution for 10 min. Then the staining solution was washed away with water. Since crystal violet is environmentally hazardous the waste was collected and disposed in an appropriate manner. After air drying of the plates the crystal violet on the cells was dissolved in 100 μl of sodium citrate solution, and the absorption was measured with a plate reader at 590 nm.
Mean values were corrected with the absorption of stained medium and the corrected absorption of T0 cells. Cell growth was calculated relative to DMSO control for data comparison.

[1] = test system: colon carcinoma cell line HCT116p53 wild type; experiment: Crystal violet assay, HCT116p53wt; conditions: n = 3
Protocol: as §1
(§2) Cells were treated with 2 μl of the working solution 24 h after seeding. Final compound concentrations in the well were 10 μM for the first round of screening. The final DMSO concentration was 0.5%. […] After finishing the addition of compounds, the T0-plate was stained with crystal violet for giving the cell density at time point zero. […] After air drying of the plates the crystal violet on the cells was dissolved in 100 μl of sodium citrate solution, and the absorption was measured with a plate reader at 590 nm.
(§3) Mean values were corrected with the absorption of stained medium and the corrected absorption of T0 cells. Cell growth was calculated relative to DMSO control for data comparison. IC50 values (50% inhibition of cell growth) were determined with GraphPad Prism® (Version 4.03) using nonlinear regression (sigmoidal dose-response with variable slope). […]

[2] = test system: melanoma cell line SK-MEL 5; experiment: Crystal violet assay, SK-MEL 5; conditions: Homo sapiens, n = 3
Protocol: as §1, §2, §3

SW480 cells = experiment: Cell cycle analysis by flow cytometry; conditions: 0.03, 0.1 or 0.3 μM compared to DMSO control; FIG. 5
Protocol: FIG. 5: Cell cycle analysis using SW480 cells treated with 0 μM (control using DMSO), 0.03 μM, 0.1 μM or 0.3 μM of compound 22.
To quantify the cellular DNA content, DNA is visualized by staining with propidium iodide (PI), a fluorescent dye which binds to double stranded DNA. To allow PI to enter cells they are permeabilized with Triton-X. The fluorescence intensity per cell, which correlates with its DNA content, is measured by flow cytometry. The G0/G1 peak represents cells in the usual diploid state. Apoptotic cells are characterized through a peak in the FACS histogram below the G0/G1 peak (sub G1) (Nicoletti I et al. J. Immunol. Methods 1991, 139 (2), 271-279):
Since cells in different phases of the cell cycle have a different DNA content this method can also be used for measuring the amount of cells in different stages of the cell cycle. Cells were seeded in 12-well plates at a density 10 fold more than used in 96-well plates in 2 ml growth media. Cells were incubated for one day, until they reached 50-70% confluence. Then they were stimulated with different concentrations of the test compounds, according to the data available from proliferation assays. […]
Cells were measured by flow cytometry 50-150 events/second with a total of 10 000 events using channel FL2-A. Data were analyzed with CellQuest Pro™. Mean values from different repeats were analyzed using GraphPad Prism® 4.03.

| IC50 (HCT116 cell line) [nM] | IC50 [1] [nM] | IC50 [2] [nM] | SMILES | “DNA>4N” portion (inhibition of cell division) (SW480 cells) | “Sub G1” portion (induction of apoptosis) (SW480 cells) |
| --- | --- | --- | --- | --- | --- |
| 230 | 280 | 150 | COc1ccccc1/C=C/C=C/C(=O)c1cc(OC)c(OC)c(OC)c1 [Compound 1, 5-(2-Methoxyphenyl)-1-(3′,4′,5′-trimethoxyphenyl)-2,4-pentadiene-1-one] |  |  |
|  |  |  | CCOc1ccccc1C(=O)/C=C/c1ccc2ccccc2c1 [Compound 22, 3-(2-Naphthyl)-1-(2′-ethoxyphenyl)-2-propene-1-one] | increase | increase |
